The subject of experiment [1] is HepG2-C8 cells. In words: MTS cell viability assay. It is filed as cell-based, human. The note with it: Homo sapiens. The protocol: The stably transfected single clone HepG2-ARE-C8 (HepG2-C8) cell line has been established previously in our laboratory using the […]-luciferase reporter gene. The cells were maintained in Dulbecco's modified Eagle medium supplemented with 10% fetal bovine serum (FBS), 1.17 g/l sodium bicarbonate, and 100 unit/ml penicillin, 100 μg/ml streptomycin at 37° C. in a humidified incubator with 5% CO2. […] MTS] (Promega, Madison, Wis.). […] The cells were then treated with MTS for 1 h at 37° C. Absorbance of the formazan product was read at 490 nm with a μQuant Biomolecular Spectrophotometer from Bio-Tek Instruments Inc. (Winooski, Vt.). Independent control studies were conducted using 1% and 10% FBS medium.
(Formazan colour is commonly taken as a measure of viable cells.)

Experiment [2] has as its system 5-methylcytosine (5-MC). In words: IHC staining of TRAMP prostate tissue, global CpG methylation. The note with it: D-G1 and D-G2, p<0.001. In kind it is in vivo, mouse. The protocol: Sections (4 μm) were cut from the paraffin embedded prostate tissue and mounted on glass slides. The slides Were deparafinized in xylene and antigen unmasking was performed by applying proteinase K digestion directly on the slides for 15 min. Endogenous peroxidase was blocked by incubating in 3% […] for 5 min, and ApopTag Plus Peroxidase In Situ Apoptosis Detection Kit (Millipore, Temecula, Calif., U.S.A.) was used to detect apoptotic cells. For detection of proliferative cells, monoclonal mouse anti-proliferating cell nuclear antigen (PCNA) antibody (Clone PC10, 1:50, Dako North America, Carpinteria, Calif., U.S.A.) was used (12). The staining was performed following as the manufacturer's protocols. Anti-5-methylcytosine (5-MC) mouse monoclone antibody (Clone 162 33 D3, 1:50, EMD Chemicals, Philadelphia, Pa., U.S.A.) was used to detect genome-wide methylated DNA. […] Quantitation of IHC staining was done using the Aperio ScanScope® GL system according to the manufactures protocol (Aperio Technologies Inc., Vista, Calif., U.S.A.). […] The Aperio ImageScopoe software (v 10.1.3.2028) allowed the unbiased quantification and quantitative analysis of the IHC staining of biomarkers of prostate tumor samples obtained from untreated control versus the treated TRAMP mice.

The test system of experiment [3] is first 5 CpGs in the promoter region of Nrf2 gene. Kind of experiment: Bisulfite genomic sequencing of TRAMP C1 cells. In kind it is cell-based, mouse. The note with it: 5 days, untreated control 96.8%. The protocol: The DIM used in the study contains approximately 98% of DIM purchased from Sigma-Aldrich t St. Louis, Mo., USA), TRAMP C1 cells (provided by Dr. Barbara Foster, Department of Pharmacology and Therapeutics, Roswell Park Cancer institute, Buffalo. NY), originally derived from TRAMP prostate tumor, were cultured in Dulbecco's Modified Eagle's Medium (Invitrogen Corp., Carlsbad, Calif. U.S.A.) supplemented with 10% (V/V) fetal bovine serum (FBS) (Invitrogen Corp., Grand Island, N.Y., U.S.A.), penicillin 100 U/ml, and streptomycin 100 μg/ml (Invitrogen Corp., Grand Island, N.Y., U.S.A.), Cells were maintained in a humidified incubator with 5% CO2 at 37° C. Cells were seeded in 10 cm plates for 24 h and then treated with 0.1% DMSO (control) or different concentrations of DIM in 1% FBS containing medium for 5 days. The medium was changed every 2 days (20),
Genomic DNA was isolated from the control or DIM treated TRAMP C1 cells and TRAMP dorso-lateral prostate tissues collected from control and DIM treated groups pooled and homogenized using the DNeasy tissue kit (Qiagen, Valencia, Calif., U.S.A.). The genomic DNAs were extracted and subjected to bisulfite conversion carried out using 750 ng of genomic DNA and applying to EZ DNA Methylation Gold Kits (Zymo Research Corp., Orange, Calif., U.S.A.) following the manufacturer's instructions. […]

SMILES strings stand for the structures. Read-outs that look alike come from different tables or passages of the source.

Turning to `c1ccc2c(Cc3c[nH]c4ccccc34)c[nH]c2c1` [DIM, 3,3′-diindolylmethane], the IC50 in experiment [1] (HepG2C8, 1% FBS medium, read-out: cell viability inhibitory concentrations (IC50)) is 51 µM; in experiment [1] (HepG2C8, 10% FBS medium (data not shown), read-out: cell viability IC50), around 85 µM. Further, the “5-MC IHC staining of the prostate tissue” value in experiment [2] is on record as “significantly decreased”. The “methylation of the first 5 CpGs of Nrf2 promoter” value in experiment [3] (2.5 μM) amounted to 73.7%; in experiment [3] (5 μM), 55.8%.

The record behind these values is US8916604B2, “Compositions and methods for epigenetic modification of nucleic acid sequences” (Rutgers, The State University of New Jersey, priority 2011, dated 2014).
